Earlier results in US9731015B2, “Water-soluble lipophilic natural compound formulations” (priority 2012, dated 2017).

Tests used:
[1] = background statement
[2] = humans, up to 4 g
[3] = animal pharmacokinetic studies

SMILES	solubility in water [1]	quercetin in plasma after oral administration [2]	bioavailability of oral doses [3]
COC1=C(OC)C(=O)C(C/C=C(\C)CC/C=C(\C)CC/C=C(\C)CC/C=C(\C)CC/C=C(\C)CC/C=C(\C)CC/C=C(\C)CC/C=C(\C)CC/C=C(\C)CCC=C(C)C)=C(C)C1=O [Co-enzyme Q-10, ubidecarenone]	insoluble in water	–	–
O=c1c(O)c(-c2ccc(O)c(O)c2)oc2cc(O)cc(O)c12 [quercetin]	–	No quercetin could be found in plasma	–
Oc1ccc(C=Cc2cc(O)cc(O)c2)cc1 [resveratrol, 3,5,4′-trihydroxystilbene]	virtually insoluble in water	–	very low bioavailability
